Measured values taken from US9833487B2, “Composition for preventing and treating arthritic diseases” (priority 2008, dated 2017).

Columns and labels:
pERK = assay: MAPK phosphorylation (western blot), pERK; assay type: cell-based, human; conditions: FIG. 18
MMP-1 (collagenase-1) = assay: MMP-1 activity in human cartilage tissue medium; assay type: cell-based; conditions: FIG. 15
Method: (§1) The joint cartilage of human was provided from the patient who had taken artificial joint surgery (Orthopedics Surgery Dep. of Kyunghee Medical Center). […] The tissue was washed with the medium several times and then the articular tissue was cultured at 37° C. in humidified […] incubator. 1 or 2 days after the incubation, the medium was replaced with new basic medium containing inactivated 5% fetal bovine serum with heat treatment, 10 mM HEPES, and 100 unit/ml of penicillin-streptomycin, and 30 mg of the chondrocyte was transferred to 48-well plate. After culturing for 1 hour, 5 ng/μl of interleukin-1α (IL-1α, R&D system, USA) was added to the medium to induce inflammation and various concentrations of test sample (KM-1), ETCP (SK Chemicals), Celecoxib (CEL, Pfizer Co., USA), and Glucosamine (GLUCO, Sigma Co., USA), i.e., 0.1, 0.2, and 0.4 mg/ml, were added thereto respectively. […] In order to measure proteolytic activity, each 25 μl of medium was added to 96-well plate with 50 μl of the substrate to incubate at 37° C. for 1 hr and the optical density was measured by ELISA reader (Molecular devices, USA) at 450 nm. The activity of each sample on MMP-1 and MMP-13 was determined by calculating the MMP (%) of medium in each well.

MMP-13 (collagenase-13) = assay: MMP-13 activity in human cartilage tissue medium; assay type: cell-based; conditions: FIG. 14
Method: as §1

pJNK = assay: MAPK phosphorylation (western blot), pJNK; assay type: cell-based, human; conditions: FIG. 18
[1] = tested on: type II collagen mRNA in cartilage tissue; assay: Gene expression of Col II (RT-PCR); assay type: cell-based, human; conditions: IL-1α treated cartilage tissue; FIG. 13
Method: (§2) The joint cartilage of human was provided from the patient who had taken artificial joint surgery (Orthopedics Surgery Dep. of Kyunghee Medical Center). […] The tissue was washed with the medium several times and then the articular tissue was cultured at 37° C. in humidified […] incubator. 1 or 2 days after the incubation, the medium was replaced with new basic medium containing inactivated 5% fetal bovine serum with heat treatment, 10 mM HEPES, and 100 unit/ml of penicillin-streptomycin, and 30 mg of the chondrocyte was transferred to 48-well plate. After culturing for 1 hour, 5 ng/μl of interleukin-1α (IL-1α, R&D system, USA) was added to the medium to induce inflammation and various concentrations of test sample (KM-1), ETCP (SK Chemicals), Celecoxib (CEL, Pfizer Co., USA), and Glucosamine (GLUCO, Sigma Co., USA), i.e., 0.1, 0.2, and 0.4 mg/ml, were added thereto respectively. […] The stained product was washed for 10 minutes with distilled water and the result was determined at UV wavelength (260 nm). The expression of proteoglycan and Col II gene collected from the cartilage tissue and chondrocytic cell of rabbit in above Reference Example 3 was determined and the test was performed by using reverse transcription polymerase chain reaction (RT-PCR) with the method disclosed in Reference Example 4.

pp 38 = assay: MAPK phosphorylation (western blot), pp38; assay type: cell-based, human; conditions: FIG. 18
[2] = tested on: GAG degradation in human articular cartilage tissue; assay: Dissociation of glycosaminoglycan (DMB assay), IL-1α induced cartilage tissue; assay type: cell-based; conditions: 0.1, 0.2, 0.4 mg/ml, FIG. 12
Method: The joint cartilage of human was provided from the patient who had taken artificial joint surgery (Orthopedics Surgery Dep. of Kyunghee Medical Center). […] The tissue was washed with the medium several times and then the articular tissue was cultured at 37° C. in humidified […] incubator. 1 or 2 days after the incubation, the medium was replaced with new basic medium containing inactivated 5% fetal bovine serum with heat treatment, 10 mM HEPES, and 100 unit/ml of penicillin-streptomycin, and 30 mg of the chondrocyte was transferred to 48-well plate. After culturing for 1 hour, 5 ng/μl of interleukin-1α (IL-1α, R&D system, USA) was added to the medium to induce inflammation and various concentrations of test sample (KM-1), ETCP (SK Chemicals), Celecoxib (CEL, Pfizer Co., USA), and Glucosamine (GLUCO, Sigma Co., USA), i.e., 0.1, 0.2, and 0.4 mg/ml, were added thereto respectively. […] The concentration of GAG in the culture medium of cartilage tissue incubated with the procedure disclosed in Reference Example 3 was measured by determining the amount of polyanionic substance produced by being reacted with blyscan dye solution and chondroitin sulfate was used as a standard. […] The amount of spectroscopic GAG was determined at 540 nm and the inhibition rate was expressed based on the amount of degradated GAG induced by interleukin-1α (IL-1α).

[3] = tested on: proteoglycan mRNA in cartilage tissue; assay: Gene expression of proteoglycan (RT-PCR); assay type: cell-based, human; conditions: IL-1α treated cartilage tissue; FIG. 13
Method: as §2

Question: What does the source list for O=C(/C=C/c1ccc(O)c(O)c1)O[C@@H]1C[C@](O)(C(=O)O)C[C@@H](O)[C@H]1O [chlorogenic acid]?
Answer: inhibition of pERK (pERK): inhibited the activity of pERK; inhibition of MMP-1 activity (MMP-1 (collagenase-1)): significantly inhibited the activity of collagenase MMP-1 and MMP-13 in a dose dependent manner; inhibition of MMP-13 activity (MMP-13 (collagenase-13)): significantly inhibited the activity of collagenase MMP-1 and MMP-13 in a dose dependent manner; inhibition of pJNK (pJNK): potently inhibited; mRNA gene expression of type II collagen [1]: increased mRNA gene expression of proteoglycan and type II collagen; inhibition of pp 38 (pp 38): potently inhibited; inhibition of the degradation of GAG [2]: potently inhibited the degradation of GAG; mRNA gene expression of proteoglycan [3]: increased mRNA gene expression of proteoglycan and type II collagen
